Like-named read-outs stand apart in the source and are kept apart here.
Experiments:
[1] = tested on: M. mycetomatis genome strain MM55; test: CLSI M38-A2 based in vitro susceptibility screening (XTT or resazurin), growth at fixed concentration; format: cell-based, Madurella mycetomatis; conditions: Madurella mycetomatis; for Percent fungal survival at 100 µM: read-out: Percentage survival at 100um, 100 uM A (second replicate column)
M. mycetomatis MM55 = test: IC50 determination, 2-fold dilution series 16 to 0.03125 μM; format: cell-based, Madurella mycetomatis; conditions: for IC50 / IC90: Madurella mycetomatis
[2] = mean, read-out: Percentage survival at 25um, 25 uM mean
[3] = replicate A, read-out: Percentage survival at 25um, 25 um A
[4] = replicate B, read-out: Percentage survival at 25um, 25 uM B
[5] = replicate C, read-out: Percentage survival at 25um, 25 uM C
[6] = mean, read-out: Percentage survival at 100um, 100 uM mean
[7] = replicate (first column), read-out: Percentage survival at 100um, 100 uM A
[8] = replicate (second column), read-out: Percentage survival at 100um, 100 uM A
[9] = replicate (third column), read-out: Percentage survival at 100um, 100 uM A
[10] = MM55, mean, read-out: IC50 mean
[11] = MM55, replicate 1, read-out: IC50 1
[12] = MM55, replicate 1, read-out: IC90 1
[13] = MM55, replicate 2, read-out: IC50 2
[14] = MM55, replicate 2, read-out: IC90 2
[15] = MM55, replicate 3, read-out: IC50 3
[16] = MM55, replicate 3, read-out: IC90 3
[17] = mean of three replicates, read-out: Percentage survival at 25um, 25 uM mean
[18] = mean of three replicates, read-out: Percentage survival at 100um, 100 uM mean
[19] = replicate 1, read-out: Percentage survival at 100um, 100 uM A (first replicate column)
[20] = replicate 3, read-out: Percentage survival at 100um, 100 uM A (third replicate column)
[21] = MM55, mean of three replicates, read-out: IC50 mean
[22] = MM55, replicate 1, read-out: IC50 1 um
[23] = MM55, replicate 1, read-out: IC90 1 um
[24] = MM55, replicate 2, read-out: IC50 2 um
[25] = MM55, replicate 2, read-out: IC90 2 um
[26] = MM55, replicate 3, read-out: IC50 3 um
[27] = MM55, replicate 3, read-out: IC90 3 um
[28] = MM55, mean of three replicates, read-out: IC90 mean

Compound | activity at 25 µM [1, 2] [%] | activity at 25 µM [1, 3] [%] | activity at 25 µM [1, 4] [%] | activity at 25 µM [1, 5] [%] | activity at 100 µM [1, 6] [%] | activity at 100 µM [1, 7] [%] | activity at 100 µM [1, 8] [%] | Drug static or cidal (M. mycetomatis MM55) | activity at 25 µM [1, 17] [%] | activity at 100 µM [1, 18] [%] | activity at 100 µM [1, 19] [%] | Percent fungal survival at 100 µM ([1]; replicate 2) [%] | activity at 100 µM [1, 20] [%] | IC50 (M. mycetomatis MM55; [21]) [µM] | IC50 (M. mycetomatis MM55; [22]) [µM] | IC90 (M. mycetomatis MM55; [23]) [µM] | IC50 (M. mycetomatis MM55; [24]) [µM] | IC90 (M. mycetomatis MM55; [25]) [µM] | IC50 (M. mycetomatis MM55; [26]) [µM] | IC90 (M. mycetomatis MM55; [27]) [µM] | further results
CCOC(=O)Nc1cc(NC(C)CC(C)CN(CC)CC)c2nc(-c3ccccc3)c(-c3ccccc3)nc2n1 (centres unmarked) [MMV1633967] | -1.71 | -4.99 | 0.0169 | -0.146 | 60.2 | 73.9 | 96.6 | Static | – | – | – | – | – | – | – | – | – | – | – | – | activity at 100 µM [1, 9]: 10.1%; IC50 (M. mycetomatis MM55; [10]): > 25 µM; IC90 (M. mycetomatis MM55; MM55, read-out: IC90 mean): > 25 µM; IC50 (M. mycetomatis MM55; [11]): > 25 µM; IC90 (M. mycetomatis MM55; [12]): > 25 µM; IC50 (M. mycetomatis MM55; [13]): > 25 µM; IC90 (M. mycetomatis MM55; [14]): > 25 µM; IC50 (M. mycetomatis MM55; [15]): > 25 µM; IC90 (M. mycetomatis MM55; [16]): > 25 µM
N=c1n(CCN2CCCCC2)c2ccccc2n1CC(O)COc1ccc(Cl)cc1Cl (centres unmarked) [MMV394033] | – | -10.3 | -2.83 | -0.144 | – | – | – | Cidal | -4.41 | -2.82 | -5.36 | -3.08 | -0.0169 | 17.1 | 18.7 | > 25 | 16.3 | 23.5 | 16.4 | 23.7 | –
Cc1cc(O)c2c(c1)C(=O)c1c(I)c(O)c(I)c(O)c1C2=O [MMV1581545] | – | 10.6 | 4.74 | 21.8 | – | – | – | Cidal | 12.4 | 12.4 | 10.8 | 14.2 | 12.3 | > 25 | > 25 | > 25 | > 25 | > 25 | > 25 | > 25 | IC90 (M. mycetomatis MM55; [28]): > 25 µM
Cc1ccc(Oc2ccccc2-c2csc(NC3=NCCCN3)n2)c(C)c1 [MMV1634493] | 13.4 | 34.1 | 1.37 | 4.64 | 5.01 | 1.69 | 6.56 | Static | – | – | – | – | – | – | – | – | – | – | – | – | activity at 100 µM [1, 9]: 6.77%; IC50 (M. mycetomatis MM55; [10]): > 25 µM; IC90 (M. mycetomatis MM55; MM55, read-out: IC90 mean): > 25 µM; IC50 (M. mycetomatis MM55; [11]): > 25 µM; IC90 (M. mycetomatis MM55; [12]): > 25 µM; IC50 (M. mycetomatis MM55; [13]): > 25 µM; IC90 (M. mycetomatis MM55; [14]): > 25 µM; IC50 (M. mycetomatis MM55; [15]): > 25 µM; IC90 (M. mycetomatis MM55; [16]): > 25 µM
O=[N+]([O-])c1ccc2c(CCc3c[nH]c4ccccc34)c[nH]c2c1 [MMV1593539] | – | – | – | – | – | – | – | – | – | – | – | – | – | – | 3.2 | 18 | 15.9 | 23.4 | 18 | 23.7 | activity at 25 µM ([1]; mean of three, M. mycetomatis MM55, read-out: Percentage survival at 25um, 25 uM mean): 4.51%; activity at 25 µM ([1]; replicate A, M. mycetomatis MM55, read-out: Percentage survival at 25um, 25 um A): 2.73%; activity at 25 µM ([1]; replicate B, M. mycetomatis MM55, read-out: Percentage survival at 25um, 25 uM B): 8.11%; activity at 25 µM ([1]; replicate C, M. mycetomatis MM55, read-out: Percentage survival at 25um, 25 uM C): 2.7%; activity at 100 µM ([1]; mean of three, M. mycetomatis MM55, read-out: Percentage survival at 100um, 100 uM mean): 47.9%; activity at 100 µM ([1]; replicate 1, M. mycetomatis MM55, read-out: Percentage survival at 100um, 100 uM A (first replicate column)): 0.0782%; Percent fungal survival at 100 µM ([1]; replicate 2, M. mycetomatis MM55): 136%; activity at 100 µM ([1]; replicate 3, M. mycetomatis MM55, read-out: Percentage survival at 100um, 100 uM A (third replicate column)): 7.7%; Drug static or cidal (M. mycetomatis MM55; M. mycetomatis): Cidal; IC50 (M. mycetomatis MM55; MM55, mean of replicates, read-out: IC50 mean): 12.4 µM; IC90 (M. mycetomatis MM55; MM55, mean of replicates, read-out: IC90 mean): 21.7 µM
N=C(N)NCCCCC(=O)Nc1cc(C(F)(F)F)cc(NC(=O)c2cc(C(=O)Nc3cc(C(F)(F)F)cc(NC(=O)CCCCNC(=N)N)c3O[C@@H]3CCNC3)ncn2)c1O[C@@H]1CCNC1 [MMV1634402] | – | 3.69 | 8.57 | 29.8 | – | – | – | Cidal | 14 | 18.1 | 14.1 | 19.7 | 20.5 | 12.2 | 6.6 | 20 | 16.1 | 23.9 | 13.8 | 22.8 | IC90 (M. mycetomatis MM55; [28]): 22.2 µM

From publication PMC8815882, “Screening the pandemic response box identified benzimidazole carbamates, Olorofim and ravuconazole as promising drug candidates for the treatment of eumycetoma” (PLoS Neglected Tropical Diseases, 2022)
